These results are taken from US4044043A, “Derivatives of 9-oxo-13-trans-prostenoic acid esters” (American Cyanamid Company, priority 1975, dated 1977).

Structures are written as SMILES. ≈ marks a conversion by molar mass, not a printed value. Read-outs that look alike come from different tables or passages of the source. Bounds are passed on as bounds.

Assay [1] deals with Mycobacterium smegmatis ATCC 606. In words: agar-dilution streak-plate antimicrobial assay. Conditions: Mycolicibacterium smegmatis, ATCC606, read-out: Minimal inhibitory conc. (6). The assay is classed as cell-based. In a few lines:
(§1)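 Complete absence of visible growth on the streak defines the MIC, given in µg/ml. Each compound, made up at 2.5 mg/ml and diluted two-fold, is incorporated 1:10 into organism-appropriate nutrient agar before loop inoculation and incubation.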

In assay [2] the test system is Streptococcus pyogenes C 203. Put plainly: agar-dilution streak-plate antimicrobial assay. As to conditions: C203, read-out: Minimal inhibitory conc. (8). The assay is classed as cell-based. The procedure, abridged: as §1
In assay [3] the test system is Staphylococcus aureus Rose ATCC 14154. In words: agar-dilution streak-plate antimicrobial assay. It counts as cell-based. As to conditions: ATCC14154, read-out: Minimal inhibitory conc. (7). The procedure, abridged:
as §1

Assay [4] concerns Microsporum canis ATCC 10214. In words: agar-dilution streak-plate antimicrobial assay. The assay is classed as cell-based. As to conditions: ATCC10214, read-out: Minimal inhibitory conc. (1). In a few lines: as §1
Assay [5] relates to Trichophyton tonsurans NIH 662. In words: agar-dilution streak-plate antimicrobial assay. It counts as cell-based. As to conditions: NIH662, read-out: Minimal inhibitory conc. (3). The procedure, abridged: as §1
For another assay, the system named is diastolic blood pressure. Put plainly: Prostaglandin-like hypotensive activity in anesthetized rats (minimal dose for about 10 mm. decrease in diastolic blood pressure). It counts as in vivo, Male Wistar strain rats. As to conditions: Rattus norvegicus; intravenous; decrease of about 10 mm. in diastolic blood pressure. The procedure, abridged:
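Male Wistar rats (~250 g), pentobarbital 30 mg./kg. i.v. and hexamethonium 2 mg./kg. i.v., iliac artery cannulated for blood pressure. Compounds in saline-Tween 80 given i.v. at 0.1–10.0 mg./kg.; value is the minimal dose giving ~10 mm. drop in diastolic pressure.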

Assay [6] concerns Trichophyton mentagrophytes E 11. In words: agar-dilution streak-plate antimicrobial assay. The assay is classed as cell-based. Conditions: E11, read-out: Minimal inhibitory conc. (4). In a few lines: as §1
The test system of a further assay is Trichophyton rubrum E 97. In words: agar-dilution streak-plate antimicrobial assay. As to conditions: E97, read-out: Minimal inhibitory conc. (5). It counts as cell-based. In a few lines:
as §1

Assay [7] relates to Microsporum gypseum ATCC 14683. Put plainly: agar-dilution streak-plate antimicrobial assay. The assay is classed as cell-based. As to conditions: Nannizzia gypsea, ATCC14683, read-out: Minimal inhibitory conc. (2). The procedure, abridged: as §1
For assay [8], the system named is bronchospasms elicited by 5-hydroxytryptamine. Put plainly: Bronchodilator Activity (Konzett Assay) against 5-hydroxytryptamine. The assay is classed as in vivo, guinea pigs. As to conditions: Cavia porcellus; three logarithmic cumulative intravenous doses. In a few lines:
(§2)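 Guinea pigs given intravenous spasmogen (5-hydroxytryptamine, histamine or acetylcholine) per Konzett procedure. ED50 derived from three logarithmic cumulative intravenous doses of test compound.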

The test system of assay [9] is bronchospasms elicited by histamine. Put plainly: Bronchodilator Activity (Konzett Assay) against histamine. It counts as in vivo, guinea pigs. Conditions: Cavia porcellus; three logarithmic cumulative intravenous doses. The procedure, abridged:
as §2

Assay [10] deals with bronchospasms elicited by acetylcholine. In words: Bronchodilator Activity (Konzett Assay) against acetylcholine. It counts as in vivo, guinea pigs. As to conditions: Cavia porcellus; three logarithmic cumulative intravenous doses. In a few lines: as §2
For assay [11], the system named is dl-PGE1-induced contraction of gerbil colon. In words: Inhibition of dl-PGE1-Induced Contraction of Gerbil Colon (prostaglandin antagonist action). The assay is classed as cell-based, gerbils (Meriones unguiculatus). As to conditions: Meriones unguiculatus, 1 min; sub-maximal challenge, 20 ng./ml. dl-PGE1; 50% inhibition of maximum response; read-out: ID50 vs. 20 ng. of PGE1/ml. In a few lines: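 Ascending colon from male gerbils, held in De Jalon's solution at 37 °C under 95% O2/5% CO2 with 0.5 g resting tension, contraction recorded isometrically. 1 min compound exposure, then 1 min dl-PGE1 at 200 ng/ml (maximal) or 20 ng/ml (sub-maximal). Approximate ID50 taken from a concentration series against the preceding agonist-only cycle.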

The next assay concerns gastric acid secretion. In words: Inhibition of basal Gastric Acid Secretion (Acute Gastric Fistula Rat). It counts as in vivo, Female Sprague-Dawley rats. Conditions: 2 h, 10 mg./kg. intraduodenal, B: 120 minute collection. As to the method:
Inhibition of basal gastric acid secretion was determined in the acute gastric fistula rat as follows. Female Sprague-Dawley rats (Charles River Laboratories) weighing 140-160 grams are fasted in individual cages for 18-24 hours. The rats are then lightly anesthetized with ether and their front teeth extracted to avoid destruction of the plastic cannula. A midline incision is then made and the stomach and duodenum exposed. A flanged polyvinyl tube is inserted into the fundic portion of the stomach and secured with a purse string suture line using 4-0 Mersilene. The rat is then dosed by injection of the compound into the duodenum (1.0 ml. per 100 gram body weight). After dosing, the abdominal wall and skin are closed using metal wound clips. The rat is replaced in a cage containing a longitudinal slit to allow the polyvinyl tube to hang freely. An 8 ml. plastic collecting tube is attached to the flanged cannula and hangs freely below the cage. The first 30 minute sample is discarded designating this time as zero. The collecting tube is attached again and samples removed at the end of 60 and 120 minutes. Those samples are referred to as "A" and "B" in the table. The hourly samples are then transferred to a 15 ml. centrifuge tube and centrifuged for 5-10 minutes. Total and sediment volume are then recorded with the supernatant volume being used as volume of secretion. A 1 ml. or less aliquot is then removed and placed in a 50 ml. beaker containing 10 ml. of distilled water. This sample is then titrated using 0.01N NaOH to pH 7.0 using a Beckman zeromatic pH meter. Volume, titratable acidity (meq/L) and total acid output (μ eq/hour) are recorded. Percent inhibition is determined by comparison with the appropriate control. Groups of three rats were used. All compounds are administered in vehicle (0.5% methocel, 0.4% Tween 80, saline) at a constant volume of 1 ml./100 gram rat. Samples were sonicated with care to prevent overheating.

For `CCCCCC/C=C/[C@@H]1CCC(=O)[C@H]1CCCCCCC(=O)OCCN(C)C` (relative stereo) [β-dimethylaminoethyl 9-oxo-13-trans-prostenoate], the MIC in assay [1] amounted to 10 µg/mL (≈ 25.4 µM); in assay [2], 10 µg/mL (≈ 25.4 µM); in assay [3], 50 µg/mL (≈ 127 µM); in assay [4] it was 250 µg/mL (≈ 635 µM); in [5], 250 µg/mL (≈ 635 µM). In addition, the minimal effective dose in the assay on diastolic blood pressure lay in the range of 0.5 to 2 mg/kg.

As to `CCOC(=O)CCCCCC[C@H]1C(=O)CC[C@@H]1/C=C/CCCCCCCl` (relative stereo) [ethyl 20-chloro-9-oxo-13-trans-prostenoate], the MIC (in assay [1]; in assay [6]; in the assay with Trichophyton rubrum E 97; in assay [5]) was 250 µg/mL (≈ 649 µM) throughout. The compound further showed a minimal effective dose in the assay with diastolic blood pressure of 0.5 mg/kg.

For `CCCCCC/C=C/[C@H]1CCC(O)[C@@H]1CCCCCCC(=O)O` (stereo partly drawn) [9-hydroxy-13-trans-prostenoic acid, 9α- and 9β-hydroxy-13-trans-prostenoic acid], the MIC is 25 µg/mL (≈ 77 µM) in [1]; 50 µg/mL (≈ 154 µM) in assay [6]; 25 µg/mL (≈ 77 µM) in assay [2]; 50 µg/mL (≈ 154 µM) in assay [3]; 50 µg/mL (≈ 154 µM) in [4]; 25 µg/mL (≈ 77 µM) in assay [7]. The MIC in assay [5] is 50 µg/mL (≈ 154 µM). In the assay with diastolic blood pressure, the minimal effective dose was 2 mg/kg.

On to `CCOC(=O)CCCCCC[C@H]1C(=O)CC[C@@H]1/C=C/CCC[S+]([O-])CC` (stereo partly drawn) [ethyl 9-oxo-18-oxythia-13-trans-prostenoate], for which the MIC (in assay [1]; in [6]; in the assay on Trichophyton rubrum E 97; in assay [5]) was 250 µg/mL (≈ 650 µM) in each case. In the assay with diastolic blood pressure, this compound gave a minimal effective dose of 2 mg/kg.

On to `O=C(O)CCCCCCC1C(O)CCC1C=CCCCCl` (stereo not drawn) [9-hydroxy-20-chloro-17,18,19-trinor-13-trans-prostenoic acid], for which the ED50 in assay [8] is 17.9 mg/kg; in assay [9] it was > 10 mg/kg; in assay [10], > 10 mg/kg. Further, the MIC in [6] came out at 250 µg/mL (≈ 789 µM); in assay [2] it was 62 µg/mL (≈ 196 µM); in [7], 250 µg/mL (≈ 789 µM); in [5], 250 µg/mL (≈ 789 µM). Further, the minimal effective dose in the assay with diastolic blood pressure amounted to 2 mg/kg.

With `CCCCCCC=CC1CCC(O)C1CCCCC(=O)O` (stereo not drawn) [9-hydroxy-6,7-dinor-13-trans-prostenoic acid], the ED50 in assay [8] was > 10 mg/kg; in assay [9], 6.06 mg/kg; in assay [10], > 10 mg/kg. Further, in assay [11], the IC50 lay in the range of 10 to 12 µg/mL (≈ 33.7 to 40.5 µM). Further, the MIC is 62 µg/mL (≈ 209 µM) in assay [1]; 62 µg/mL (≈ 209 µM) in assay [6]; 62 µg/mL (≈ 209 µM) in assay [2]; 250 µg/mL (≈ 843 µM) in assay [3]; 250 µg/mL (≈ 843 µM) in assay [4]; 250 µg/mL (≈ 843 µM) in the assay with Trichophyton rubrum E 97. For the same compound, the MIC in assay [7] and in assay [5] was 62 µg/mL (≈ 209 µM) in each case. In the assay on diastolic blood pressure, this compound displayed a minimal effective dose of 2 mg/kg.

For the compound `CCCCCC/C=C/[C@@H]1CCC(=O)[C@H]1CC(=O)O` (relative stereo) [9-oxo-3,4,5,6,7-pentanor-13-trans-prostenoic acid], the MIC in assay [6] worked out at 250 µg/mL (≈ 991 µM); in assay [4] it was 250 µg/mL (≈ 991 µM); in the assay on Trichophyton rubrum E 97, 250 µg/mL (≈ 991 µM); in assay [7], 250 µg/mL (≈ 991 µM); in assay [5], 125 µg/mL (≈ 495 µM). For the same compound, the inhibition in vivo at 10 mg/kg amounted to 64% in the assay with gastric acid secretion (read-out: % Inhibition Total Acid Output) and 48% in the assay on gastric acid secretion (read-out: % Inhibition Total Acidity). Besides, the minimal effective dose in the assay on diastolic blood pressure was 2 mg/kg.

For `CCOC(=O)CCCCCC[C@H]1C(=O)CC[C@@H]1/C=C/C(C)C` (relative stereo) [ethyl 15-methyl-9-oxo-17,18,19,20-tetranor-13-trans-prostenoate], the MIC came to 62 µg/mL (≈ 201 µM) in [1]; 250 µg/mL (≈ 810 µM) in assay [6]; 250 µg/mL (≈ 810 µM) in assay [4]; 250 µg/mL (≈ 810 µM) in the assay on Trichophyton rubrum E 97; 250 µg/mL (≈ 810 µM) in assay [7]; 250 µg/mL (≈ 810 µM) in assay [5].

For the compound `CC(C)CCC=CC1CCC(O)C1CCCCCCC(=O)O` (stereo not drawn) [9-hydroxy-17-methyl-18,19-dinor-13-trans-prostenoic acid], the IC50 in assay [11] lay within 5 to 10 µg/mL (≈ 16.1 to 32.2 µM). For the same compound, the MIC is 62 µg/mL (≈ 200 µM) in assay [1]; 62 µg/mL (≈ 200 µM) in assay [6]; 25 µg/mL (≈ 80.5 µM) in assay [2]; 125 µg/mL (≈ 403 µM) in assay [3]; 250 µg/mL (≈ 805 µM) in the assay with Trichophyton rubrum E 97; 62 µg/mL (≈ 200 µM) in assay [7]. The MIC in [5] was 62 µg/mL (≈ 200 µM). Moreover, the minimal effective dose in the assay on diastolic blood pressure lay in the range of 0.2 to 2 mg/kg.

For `CCCCCC/C=C/[C@H]1CCC(=O)[C@@H]1CCCCC(=O)O` (relative stereo) [9-oxo-6,7-dinor-13-trans-prostenoic acid], the IC50 in assay [11] lay in the range of 10 to 20 µg/mL (≈ 34 to 67.9 µM). In addition, the MIC (in assay [1]; in [6]; in assay [2]; in assay [3]; in assay [4]; with Trichophyton rubrum E 97) was 250 µg/mL (≈ 849 µM) in each case. In addition, the MIC in assay [7] and in assay [5] was 250 µg/mL (≈ 849 µM) in each case. The minimal effective dose with diastolic blood pressure was 2 mg/kg.

As usually defined, the minimal effective dose is the lowest level tested that produced the effect sought. A high value points to a need for much substance. Broadly, the ED50 is the dose at which the effect has come halfway, by size or by number of responders. Low values mean an effect at a small dose, high ones a need for a large dose.
